Results as given in patent US8211928B2, “Hepatitis C virus inhibitors” (Bristol-Myers Squibb Company, priority 2009, dated 2012).

The molecules below were run on HCV 1b genotype (assay: HCV replicon assay, 1b genotype). Conditions: Hepatitis C virus; HCV 1b genotype replicon; activity ranges; read-out: 1b EC50 in Range.
Format: cell-based
Procedure: An HCV Replion assay was utilized in the present disclosure, and was prepared, conducted and validated as described in commonly owned PCT/US2006/022197 and in O'Boyle et. al. Antimierob Agents Chemother. 2005 April; 49(4):1346-53. Assay methods incorporating luciferase reporters have also been used as described (Apath.com).
HCV-neo replicon cells and HCV replicon cells containing mutations in the NS5A region were used to test the currently described family of compounds. The compounds were determined to have more than 10-fold less inhibitory activity on cells containing mutations than wild-type cells. Thus, the compounds of the present disclosure can be effective in inhibiting the function of the HCV NS5A protein and are understood to be as effective in combinations as previously described in application PCT/US2006/022197 and commonly owned WO/04014852. Further, the compounds of the present disclosure can be effective against the HCV 1b genotype. It should also be understood that the compounds of the present disclosure can inhibit multiple genotypes of HCV. […] In one embodiment, compounds of the present disclosure are inhibitory versus 1a, 1b, 2a, 2b, 3a, 4a, and 5a genotypes. Activity ranges are as follows: A=>100 nM; B=1-100 nM; C=101-999 pM; and D=1-100 pM.

SMILES	EC50
COC(=O)N[C@H](C(=O)N1CCC[C@H]1C(=O)Nc1noc2ccc(-c3ccc(-c4cnc([C@@H]5CCCN5C(=O)[C@@H](NC(=O)OC)[C@@H](C)OC)[nH]4)cc3)cc12)[C@@H](C)OC [Example 14]	1 to 100 nM
COC(=O)N[C@H](C(=O)N1CCC[C@H]1C(=O)Nc1noc2cc(-c3ccc(-c4cnc([C@@H]5CCCN5C(=O)[C@@H](NC(=O)OC)[C@@H](C)OC)[nH]4)cc3)ccc12)[C@@H](C)OC [Example 8]	0.101 to 0.999 nM
COC(=O)N[C@H](C(=O)N1CCC[C@H]1C(=O)Nc1n[nH]c2ccc(-c3ccc(-c4cnc([C@@H]5CCCN5C(=O)[C@@H](NC(=O)OC)[C@@H](C)OC)[nH]4)cc3)cc12)[C@@H](C)OC [Example 33]	> 100 nM
COC(=O)N[C@H](C(=O)N1CCC[C@H]1C(=O)Nc1noc2cc(-c3ccc(-c4cnc([C@@H]5CCCN5C(=O)[C@@H](NC(=O)OC)C(C)C)[nH]4)cc3)ccc12)C(C)C [Example 5]	0.101 to 0.999 nM
COC(=O)N[C@H](C(=O)N1CCC[C@H]1C(=O)Nc1n[nH]c2cc(-c3ccc(-c4cnc([C@@H]5CCCN5C(=O)[C@@H](NC(=O)OC)C(C)C)[nH]4)cc3)ccc12)C(C)C [Example 24]	0.101 to 0.999 nM
CN(C)[C@@H](C(=O)N1CCC[C@H]1C(=O)Nc1noc2cc(-c3ccc(-c4cnc([C@@H]5CCCN5C(=O)[C@@H](c5ccccc5)N(C)C)[nH]4)cc3)ccc12)c1ccccc1 [Example 6]	0.101 to 0.999 nM
COC(=O)N[C@@H](C)C(=O)N1CCC[C@H]1C(=O)Nc1n[nH]c2cc(-c3ccc(-c4cnc([C@@H]5CCCN5C(=O)[C@H](C)NC(=O)OC)[nH]4)cc3)ccc12 [Example 22, (S)-1-((S)-2-Methoxycarbonylaminopropanoyl)-N-(6-(4-(2-((S)-1-((S)-2-methoxycarbonylaminopropanoyl)pyrrolidin-2-yl)-1H-imidazol-5-yl)phenyl)-1H-indazol-3-yl)pyrrolidine-2-carboxamide]	1 to 100 nM
COC(=O)N[C@@H](C(=O)N1CCC[C@H]1C(=O)Nc1noc2cc(-c3ccc(-c4cnc([C@@H]5CCCN5C(=O)[C@H](NC(=O)OC)C(C)C)[nH]4)cc3)ccc12)C(C)C [Example 7]	> 100 nM
COC(=O)N[C@@H](C)C(=O)N1CCC[C@H]1C(=O)Nc1n[nH]c2ccc(-c3ccc(-c4cnc([C@@H]5CCCN5C(=O)[C@H](C)NC(=O)OC)[nH]4)cc3)cc12 [Example 29]	> 100 nM
CN(C)[C@@H](C(=O)N1CCC[C@H]1C(=O)Nc1n[nH]c2ccc(-c3ccc(-c4cnc([C@@H]5CCCN5C(=O)[C@@H](c5ccccc5)N(C)C)[nH]4)cc3)cc12)c1ccccc1 [Example 30]	1 to 100 nM
COC(=O)N[C@@H](C)C(=O)N1CCC[C@H]1C(=O)Nc1noc2ccc(-c3ccc(-c4cnc([C@@H]5CCCN5C(=O)[C@H](C)NC(=O)OC)[nH]4)cc3)cc12 [Example 12]	1 to 100 nM
COC(=O)N[C@@H](C(=O)N1CCC[C@H]1C(=O)Nc1n[nH]c2ccc(-c3ccc(-c4cnc([C@@H]5CCCN5C(=O)[C@H](NC(=O)OC)c5ccccc5)[nH]4)cc3)cc12)c1ccccc1 [Example 34]	1 to 100 nM
COC(=O)N[C@H](C(=O)N1CCC[C@H]1C(=O)Nc1n[nH]c2cc(-c3ccc(-c4cnc([C@@H]5CCCN5C(=O)[C@@H](NC(=O)OC)[C@@H](C)OC)[nH]4)cc3)ccc12)[C@@H](C)OC [Example 25]	1 to 100 nM
COCC[C@H](NC(=O)OC)C(=O)N1CCC[C@H]1C(=O)Nc1n[nH]c2ccc(-c3ccc(-c4cnc([C@@H]5CCCN5C(=O)[C@H](CCOC)NC(=O)OC)[nH]4)cc3)cc12 [Example 32]	1 to 100 nM
COC(=O)N[C@H](C(=O)N1CCC[C@H]1C(=O)Nc1noc2ccc(-c3ccc(-c4cnc([C@@H]5CCCN5C(=O)[C@@H](NC(=O)OC)C(C)C)[nH]4)cc3)cc12)C(C)C [Example 13]	1 to 100 nM
CN(C)[C@@H](C(=O)N1CCC[C@H]1C(=O)Nc1noc2ccc(-c3ccc(-c4cnc([C@@H]5CCCN5C(=O)[C@@H](c5ccccc5)N(C)C)[nH]4)cc3)cc12)c1ccccc1 [Example 17]	1 to 100 nM
COC(=O)N[C@@H](C(=O)N1CCC[C@H]1C(=O)Nc1noc2ccc(-c3ccc(-c4cnc([C@@H]5CCCN5C(=O)[C@H](NC(=O)OC)C(C)C)[nH]4)cc3)cc12)C(C)C [Example 16]	> 100 nM
COCC[C@H](NC(=O)OC)C(=O)N1CCC[C@H]1C(=O)Nc1noc2ccc(-c3ccc(-c4cnc([C@@H]5CCCN5C(=O)[C@H](CCOC)NC(=O)OC)[nH]4)cc3)cc12 [Example 15]	1 to 100 nM
COC(=O)N[C@H](C(=O)N1CCC[C@H]1C(=O)Nc1n[nH]c2ccc(-c3ccc(-c4cnc([C@@H]5CCCN5C(=O)[C@@H](NC(=O)OC)C(C)C)[nH]4)cc3)cc12)C(C)C [Example 31]	> 100 nM
CCN(CC)[C@@H](C(=O)N1CCC[C@H]1C(=O)Nc1n[nH]c2cc(-c3ccc(-c4cnc([C@@H]5CCCN5C(=O)[C@@H](c5ccccc5)N(CC)CC)[nH]4)cc3)ccc12)c1ccccc1 [Example 23]	0.001 to 0.1 nM

Same assay, conditions: Hepatitis C virus; HCV 1b genotype replicon; read-out: 1b EC50

SMILES	EC50
COC(=O)N[C@H](C(=O)N1CCC[C@H]1C(=O)Nc1n[nH]c2ccc(-c3ccc(-c4cnc([C@@H]5CCCN5C(=O)[C@@H](NC(=O)OC)[C@@H](C)OC)[nH]4)cc3)cc12)[C@@H](C)OC [Example 33]	1200 nM
COC(=O)N[C@H](C(=O)N1CCC[C@H]1C(=O)Nc1noc2ccc(-c3ccc(-c4cnc([C@@H]5CCCN5C(=O)[C@@H](NC(=O)OC)C(C)C)[nH]4)cc3)cc12)C(C)C [Example 13]	30.1 nM
CCN(CC)[C@@H](C(=O)N1CCC[C@H]1C(=O)Nc1n[nH]c2cc(-c3ccc(-c4cnc([C@@H]5CCCN5C(=O)[C@@H](c5ccccc5)N(CC)CC)[nH]4)cc3)ccc12)c1ccccc1 [Example 23]	0.043 nM
